# Data taken from patent US20180015098A1 (LAM Therapeutics, Inc., priority 2015, published 2018).
# Tested on: panel of 456 kinases
# Test: Screen of apilimod against a comprehensive panel of 456 kinases (PIKfyve not included)
# Format: binding
# Settings: screening concentration 1 μM
# From the text: Next, apilimod was screened against a comprehensive panel of kinases (PIKfyve not included).
compound,measurement,value
Cc1cccc(/C=N/Nc2cc(N3CCOCC3)nc(OCCc3ccccn3)n2)c1 [apilimod],binding to kinases of the panel,did not bind to any of the 456 kinases tested
